From patent US8415386B2, “Azolopyrrolone melanin concentrating hormone receptor-1 antagonists” (Bristol-Myers Squibb Company, priority 2008, dated 2013) come the findings set out here.

pKi: −log10 of the molar value. Where a name gives a salt, the structure may show the parent alone.

The target of the assay is T1, mutated (E4Q, A5T) hMCHR1 receptor (Homo sapiens, UniProt Q99705, A5T/E4Q).
T1 construct: expressed in transfected cells; host or cells: HEK-293 (stably transfected), membranes
T1 sequence (Q99705 whole entry E4Q/A5T): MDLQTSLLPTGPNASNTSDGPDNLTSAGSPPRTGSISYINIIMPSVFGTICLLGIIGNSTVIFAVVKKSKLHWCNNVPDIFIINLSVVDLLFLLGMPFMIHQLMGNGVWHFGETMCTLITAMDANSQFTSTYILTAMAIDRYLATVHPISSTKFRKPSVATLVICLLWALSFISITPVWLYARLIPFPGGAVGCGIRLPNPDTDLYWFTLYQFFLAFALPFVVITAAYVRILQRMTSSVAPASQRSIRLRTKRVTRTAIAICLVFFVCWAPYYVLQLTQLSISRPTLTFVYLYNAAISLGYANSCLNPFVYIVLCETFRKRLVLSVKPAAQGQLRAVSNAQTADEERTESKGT
Description: Radioligand Binding Assay for Assessment of MCHR1 Activity. The note with it: membranes from stably transfected HEK-293 cells; competition with [Phe13,[125I]Tyr19]-MCH. The method, then:
Radioligand Binding Assay for Assessment of MCHR1 Activity
Membranes from stably transfected HEK-293 cells expressing a mutated (E4Q, A5T) hMCHR1 receptor were prepared by dounce homogenization and differential centrifugation. Binding experiments were carried out with 0.5-1.0 ug of membrane protein incubated in a total of 0.2 ml in 25 mM HEPES (pH 7.4) with 10 mM MgCl2, 2 mM EGTA, and 0.1% BSA (Binding Buffer) for 90 min. For competition binding assays, reactions were carried out in the presence of with 0.06-0.1 nM [Phe^13, [^125I]Tyr^19]-MCH and increasing concentrations of unlabeled test molecules. Reactions were terminated by rapid vacuum filtration over 96 well-GFC UNIFILTER® plates pre-coated with 0.075 ml binding buffer containing 1% BSA, and washed 3 times with 0.4 ml of Phospho-buffered Saline (pH 7.4) containing 0.01% TX-100. Filters were dried, 0.05 ml microscint 20 was added to each well and radioactivity was subsequently quantified by scintillation counting on a TOPCOUNT® microplate scintillation counter (Packard). Inhibitory constants were determined by nonlinear least squares analysis using a four parameter logistic equation.
The pKi is the negative decadic logarithm of the Ki, by convention in mol/L. Read a high pKi as a low Ki. `COc1cc(N2Cc3nn(-c4ccc(Cl)cc4)cc3C2=O)ccc1OC[C@H](O)C1CC1` [Example 1, (R)-2-(4-Chlorophenyl)-5-(4-(2-cyclopropyl-2-hydroxyethoxy)-3-methoxyphenyl)-5,6-dihydropyrrolo[3,4-c]pyrazol-4(2H)-one] gave a pKi of 7.38.
The molecule `COc1cc(N2Cc3nn(-c4ccc(Cl)cc4)cc3C2=O)ccc1OCC(C)O` (centres unmarked) [Example 2, 2-(4-Chlorophenyl)-5-(4-(2-hydroxypropoxy)-3-methoxyphenyl)-5,6-dihydropyrrolo[3,4-c]pyrazol-4(2H)-one] had a pKi of 6.48.
As for `COc1cc(N2Cc3nn(-c4ccc(Cl)cc4)cc3C2=O)ccc1OCC(C)(C)O` [Example 3, 2-(4-Chlorophenyl)-5-(4-(2-hydroxy-2-methylpropoxy)-3-methoxyphenyl)-5,6-dihydropyrrolo[3,4-c]pyrazol-4(2H)-one], the figure is 6.97; as for `COc1cc(N2Cc3nn(-c4ccc(Cl)cc4)cc3C2=O)ccc1OCC(C)OS(C)(=O)=O` (centres unmarked) [Example 4, 1-(4-(2-(4-Chlorophenyl)-4-oxopyrrolo[3,4-c]pyrazol-5(2H,4H,6H)-yl)-2-methoxyphenoxy)propan-2-yl methanesulfonate], 7.39.
Take `COc1cc(N2Cc3cn(-c4ccc(Cl)cc4)nc3C2=O)ccc1OCC(C)OS(C)(=O)=O` (centres unmarked) [Example 5, 1-(4-(2-(4-Chlorophenyl)-6-oxopyrrolo[3,4-c]pyrazol-5(2H,4H,6H)-yl)-2-methoxyphenoxy)propan-2-yl methanesulfonate]: the pKi was 7.86.
Take `COc1cc(N2Cc3cn(-c4ccc(Cl)cc4)nc3C2=O)ccc1OCC(C)O` (centres unmarked) [Example 6, 2-(4-Chlorophenyl)-5-(4-(2-hydroxypropoxy)-3-methoxyphenyl)-4,5-dihydropyrrolo[3,4-c]pyrazol-6(2H)-one]: the pKi is 7.88.
Consider `COc1ccc(N2Cc3cn(-c4ccc(Cl)cc4)nc3C2=O)cc1OC` [Example 7, 2-(4-Chlorophenyl)-5-(3,4-dimethoxyphenyl)-4,5-dihydropyrrolo[3,4-c]pyrazol-6(2H)-one], for which the pKi is 7.31. Against the preceding molecule, the pKi is 0.57 log units lower.
As for `COc1cc(N2Cc3cn(-c4ccc(Cl)cc4)nc3C2=O)ccc1OCC(C)(C)O` [Example 8, 2-(4-Chlorophenyl)-5-(4-(2-hydroxy-2-methylpropoxy)-3-methoxyphenyl)-4,5-dihydropyrrolo[3,4-c]pyrazol-6(2H)-one], the figure is 7.90; as for `COc1cc(N2Cc3cn(-c4ccc(Cl)cc4)nc3C2=O)ccc1OC[C@H](O)C1CC1` [Example 9, (R)-2-(4-Chlorophenyl)-5-(4-(2-cyclopropyl-2-hydroxyethoxy)-3-methoxyphenyl)-4,5-dihydropyrrolo[3,4-c]pyrazol-6(2H)-one], 8.07; as for `COc1cc(N2Cc3cn(-c4ccc(Cl)cc4)nc3C2=O)ccc1OC[C@H](OC(=O)[C@@H](N)C(C)C)C1CC1` [Example 10, (S)-((R)-2-(4-(2-(4-Chlorophenyl)-6-oxopyrrolo[3,4-c]pyrazol-5(2H,4H,6H)-yl)-2-methoxyphenoxy)-1-cyclopropylethyl) 2-amino-3-methylbutanoate, TFA salt], 8.57.
For `O=C1c2nn(-c3ccc(Cl)cc3)cc2CN1c1ccc(N2CC[C@@H](O)C2)nc1` [Example 11, (R)-2-(4-Chlorophenyl)-5-(6-(3-hydroxypyrrolidin-1-yl)pyridin-3-yl)-4,5-dihydropyrrolo[3,4-c]pyrazol-6(2H)-one] the value was 7.09; for `COc1cc(N2Cc3nn(-c4ccc(Cl)cc4)nc3C2=O)ccc1OCCN1CCCC1` [Example 12, 2-(4-Chlorophenyl)-5-(3-methoxy-4-(2-(pyrrolidin-1-yl)ethoxy)phenyl)-5,6-dihydropyrrolo[3,4-d][1,2,3]triazol-4(2H)-one], 8.64.
For `COc1cc(N2Cc3nn(-c4ccc(Cl)cc4)nc3C2=O)ccc1OCC(C)(C)O` [Example 13, 2-(4-Chlorophenyl)-5-(4-(2-hydroxy-2-methylpropoxy)-3-methoxyphenyl)-5,6-dihydropyrrolo[3,4-d][1,2,3]triazol-4(2H)-one] the value was 7.46; for `COc1cc(N2Cc3nn(-c4ccc(Cl)cc4)nc3C2=O)ccc1OCC(O)C1CC1` (centres unmarked) [Example 14, 2-(4-Chlorophenyl)-5-(4-(2-cyclopropyl-2-hydroxyethoxy)-3-methoxyphenyl)-5,6-dihydropyrrolo[3,4-d][1,2,3]triazol-4(2H)-one], 6.95.
Turning to `COc1cc(N2Cc3nn(-c4ccc(Cl)cc4)nc3C2=O)ccc1OCC(=O)C1CC1` [Example 14B, 2-(4-Chlorophenyl)-5-(4-(2-cyclopropyl-2-oxoethoxy)-3-methoxyphenyl)-5,6-dihydropyrrolo[3,4-d][1,2,3]triazol-4(2H)-one], the pKi is 6.52.
As for `COc1cc(N2Cc3cn(-c4ccc(Cl)cc4)nc3C2=O)ccc1OCCN1CCCC1` [Example 15, 2-(4-Chlorophenyl)-5-(3-methoxy-4-(2-(pyrrolidin-1-yl)ethoxy)phenyl)-4,5-dihydropyrrolo[3,4-c]pyrazol-6(2H)-one, TFA], the figure is 9.15; as for `CNC1CCN(c2ccc(N3Cc4cn(-c5ccc(Cl)cc5)nc4C3=O)cn2)C1` (centres unmarked) [Example 16, 2-(4-Chlorophenyl)-5-(6-(3-(methylamino)pyrrolidin-1-yl)pyridin-3-yl)-4,5-dihydropyrrolo[3,4-c]pyrazol-6(2H)-one, 2 TFA], 8.60; as for `CN(C(=O)OC(C)(C)C)C1CCN(c2ccc(N3Cc4cn(-c5ccc(Cl)cc5)nc4C3=O)cn2)C1` (centres unmarked) [Example 16G, tert-Butyl 1-(5-(2-(4-chlorophenyl)-6-oxopyrrolo[3,4-e]pyrazol-5(2H,4H,6H)-yl)pyridin-2-yl)pyrrolidin-3-yl(methyl)carbamate], 8.44.
Molecule `CN(C)[C@H]1CCN(c2ccc(N3Cc4cn(-c5ccc(Cl)cc5)nc4C3=O)cn2)C1` [Example 17, (S)-2-(4-Chlorophenyl)-5-(6-(3-(dimethylamino)pyrrolidin-1-yl)pyridin-3-yl)-4,5-dihydropyrrolo[3,4-c]pyrazol-6(2H)-one, 2 HCl] gave a pKi of 9.05.
With `CN(C)[C@@H]1CCN(c2ccc(N3Cc4cn(-c5ccc(Cl)cc5)nc4C3=O)cn2)C1` [Example 18, HCl], the pKi is 9.15.
As for `CN[C@@H]1CCN(c2ccc(N3Cc4cn(-c5ccc(Cl)cc5)nc4C3=O)cn2)C1` [Example 19, (R)-2-(4-Chlorophenyl)-5-(6-(3-(methylamino)pyrrolidin-1-yl)pyridin-3-yl)-4,5-dihydropyrrolo[3,4-c]pyrazol-6(2H)-one, 2 HCl], the figure is 8.89; as for `CN(C(=O)OC(C)(C)C)[C@@H]1CCN(c2ccc(N3Cc4cn(-c5ccc(Cl)cc5)nc4C3=O)cn2)C1` [Example 19A, (R)-tort-Butyl 1-(5-(2-(4-chlorophenyl)-6-oxopyrrolo[3,4-c]pyrazol-5(2H,4H,6H)-yl)pyridin-2-yl)pyrrolidin-3-yl(methyl)carbamate], 6.74.
On to `CN[C@H]1CCN(c2ccc(N3Cc4cn(-c5ccc(Cl)cc5)nc4C3=O)cn2)C1` [Example 20, (S)-2-(4-Chlorophenyl)-5-(6-(3-(methylamino)pyrrolidin-1-yl)pyridin-3-yl)-4,5-dihydropyrrolo[3,4-c]pyrazol-6(2H)-one, 2 HCl], for which the pKi was 9.05.
As for `CN(C(=O)OC(C)(C)C)[C@H]1CCN(c2ccc(N3Cc4cn(-c5ccc(Cl)cc5)nc4C3=O)cn2)C1` [Example 20A, (S)-tert-Butyl 1-(5-(2-(4-chlorophenyl)-6-oxopyrrolo[3,4-c]pyrazol-5(2H,4H,6H)-yl)pyridin-2-yl)pyrrolidin-3-yl(methyl)carbamate], the figure is 6.11; as for `CC(C)(C)NC1CCN(c2ccc(N3Cc4cn(-c5ccc(Cl)cc5)nc4C3=O)cn2)C1` (centres unmarked) [Example 24, 5-(6-(3-(tert-Butylamino)pyrrolidin-1-yl)pyridin-3-yl)-2-(4-chlorophenyl)-4,5-dihydropyrrolo[3,4-c]pyrazol-6(2H)-one], 8.57.
For `O=C1c2nn(-c3ccc(Cl)cc3)cc2CN1c1ccc(N2CCC(N3CCCC3)C2)nc1` (centres unmarked) [Example 28, 5-(6-(1,3′-Bipyrrolidin-1′-yl)pyridin-3-yl)-2-(4-chlorophenyl)-4,5-dihydropyrrolo[3,4-c]pyrazol-6(2H)-one], the pKi is 9.05. This pKi lies 0.48 log units higher than the previous one.
For `O=C1c2nn(-c3ccc(Cl)cc3)cc2CN1c1ccc(N2CCC(N3CCCC3)CC2)nc1` [Example 29, 2-(4-Chlorophenyl)-5-(6-(4-(pyrrolidin-1-yl)piperidin-1-yl)pyridin-3-yl)-4,5-dihydropyrrolo[3,4-c]pyrazol-6(2H)-one] the value was 7.77; for `CN[C@H]1CCN(c2ccc(N3Cc4cn(-c5ccc(Cl)cc5)nc4C3=O)cc2OC)C1` [Example 42, (S)-2-(4-Chlorophenyl)-5-(3-methoxy-4-(3-(methylamino)pyrrolidin-1-yl)phenyl)-4,5-dihydropyrrolo[3,4-c]pyrazol-6(2H)-one, 2 TFA], 9.30.
`CN[C@H]1CCN(c2ncc(N3Cc4cn(-c5ccc(Cl)cc5)nc4C3=O)cn2)C1` [Example 47, (S)-2-(4-Chlorophenyl)-5-(2-(3-(methylamino)pyrrolidin-1-yl)pyrimidin-5-yl)-4,5-dihydropyrrolo[3,4-c]pyrazol-6(2H)-one]: the negative-log Ki (pKi) is 7.49.
